Experimental data as given in patent publication US20250288683A1, “TETRAHYDROISOQUINOLINE HETEROBIFUNCTIONAL BCL-XL DEGRADERS” (Treeline Biosciences, Inc., priority 2022, published 2025).

Molecular target: T1, Human BCL-XL protein (N-terminal HiBiT tagged BCL-XL in HT1080 cells) (Homo sapiens, UniProt Q07817)
T1 construct: expressed in transfected cells; host or cells: HT-1080 (ATCC CCL-121), stably transduced with lentivirus pLV-UBC-N-HiBiT-BCL-XL-PGK-puro and selected with puromycin
Experiment: HiBiT based degradation assay
Type: cell-based
Conditions: HT1080 cells expressing N-terminal HiBiT tagged BCL-XL, normalized with DMSO control
From the text: HiBiT Based Degradation Assay
Human BCL-XL protein coding open reading frame fused with N-terminal HiBiT coding sequence was synthesized from Integrated DNA Technologies (IDT). Next, N-HiBiT-BCL-XL sequence was cloned into pLV-UBC-PGK-Puro, a lentivirus plasmid purchased from Vectorbuilder, to generate pLV-UBC-N-HiBiT-BCL-XL-PGK-puro. Lentiviral particles were generated from Lenti-X™ 293T cells (Clontech) by co-transfection of pLV-UBC-N-HiBiT-BCL-XL-PGK-puro plasmids and lentiviral packaging plasmid mix (Cellecta). HT-1080 [HT1080](ATCC CCL-121) cells were infected with the lentivirus, and HT1080 cells stably integrated with the lentiviral vectors were established by incubation with 1 μg/mL puromycin (Thermofisher).
HT1080 cells expressing N-terminal HiBiT tagged BCL-XL were dispensed into a 384-well plate pre-spotted with compounds at varying concentrations. Three thousand cells were seeded into each well in 40 μL of RPMI 1640 media. […] After incubation, luminescence was read on a PHERAstar FSX Plate Reader (BMG). BCL-XL degradation at each indicated concentration was normalized with the DMSO control. The BCL-XL degradation curves were plotted using a four-parameter logistic model. For compounds displaying hook effects, the curve fitting was performed using the bottom point of the hook curves (i.e., the point of Ymin) as the bottom plateau to calculate EC50.

T1 sequence (Q07817 whole entry): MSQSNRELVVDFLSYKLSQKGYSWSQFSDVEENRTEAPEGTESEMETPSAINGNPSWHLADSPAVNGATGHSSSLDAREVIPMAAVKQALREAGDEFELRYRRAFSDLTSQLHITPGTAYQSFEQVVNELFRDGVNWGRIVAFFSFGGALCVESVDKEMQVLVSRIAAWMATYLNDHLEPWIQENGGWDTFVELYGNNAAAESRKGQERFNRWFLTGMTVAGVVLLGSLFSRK

SMILES	Ymin (6 h)	Ymin (24 h)
Cc1ncsc1-c1ccc([C@H](C)NC(=O)[C@@H]2C[C@@H](O)CN2C(=O)[C@@H](NC(=O)CCCCCCCOc2cccc(-c3ccc(N4CCc5cccc(C(=O)Nc6nc7ccccc7s6)c5C4)nc3C(=O)O)c2C)C(C)(C)C)cc1 [Compound 107a, 6-[8-(1,3-benzothiazol-2-ylcarbamoyl)-3,4-dihydro-1H-isoquinolin-2-yl]-3-[3-[8-[[(1S)-1-[(2S,4R)-4-hydroxy-2-[[(1S)-1-[4-(4-methylthiazol-5-yl)phenyl]ethyl]carbamoyl]pyrrolidine-1-carbonyl]-2,2-dimethyl-propyl]amino]-8-oxo-octoxy]-2-methyl-phenyl]pyridine-2-carboxylic acid]	B (50% ≤ Ymin < 70%)	
Cc1ncsc1-c1ccc([C@H](C)NC(=O)[C@@H]2C[C@@H](O)CN2C(=O)[C@@H](NC(=O)CCCCOc2cccc(-c3ccc(N4CCc5cccc(C(=O)Nc6nc7ccccc7s6)c5C4)nc3C(=O)O)c2C)C(C)(C)C)cc1 [Compound 108a, 6-[8-(1,3-benzothiazol-2-ylcarbamoyl)-3,4-dihydro-1H-isoquinolin-2-yl]-3-[3-[5-[[(1S)-1-[(2S,4R)-4-hydroxy-2-[[(1S)-1-[4-(4-methylthiazol-5-yl)phenyl]ethyl]carbamoyl]pyrrolidine-1-carbonyl]-2,2-dimethyl-propyl]amino]-5-oxo-pentoxy]-2-methyl-phenyl]pyridine-2-carboxylic acid]	A (Ymin < 50%)	A (Ymin < 50%)
Cc1ncsc1-c1ccc([C@H](C)NC(=O)[C@@H]2C[C@@H](O)CN2C(=O)[C@@H](NC(=O)CCCCCCCCCNC(=O)c2nc(N3CCc4cccc(C(=O)Nc5nc6ccccc6s5)c4C3)ccc2-c2cnn(Cc3ccccc3)c2C)C(C)(C)C)cc1 [Compound 110a, N-(benzo[d]thiazol-2-yl)-2-(5-(1-benzyl-5-methyl-1H-pyrazol-4-yl)-6-((10-(((S)-1-((2S,4R)-4-hydroxy-2-(((S)-1-(4-(4-methylthiazol-5-yl)phenyl)ethyl)carbamoyl)pyrrolidin-1-yl)-3,3-dimethyl-1-oxobutan-2-yl)amino)-10-oxodecyl)carbamoyl)pyridin-2-yl)-1,2,3,4-tetrahydroisoquinoline-8-carboxamide]	A (Ymin < 50%)	
Cc1ncsc1-c1ccc([C@H](C)NC(=O)[C@@H]2C[C@@H](O)CN2C(=O)[C@@H](NC(=O)CCCCCCCCCn2nc(C)c(-c3ccc(N4CCc5cccc(C(=O)Nc6nc7ccccc7s6)c5C4)nc3C(=O)O)c2C)C(C)(C)C)cc1 [Compound 111a, 6-[8-(1,3-benzothiazol-2-ylcarbamoyl)-3,4-dihydro-1H-isoquinolin-2-yl]-3-[1-[10-[[(1S)-1-[(2S,4R)-4-hydroxy-2-[[(1S)-1-[4-(4-methylthiazol-5-yl)phenyl]ethyl]carbamoyl]pyrrolidine-1-carbonyl]-2,2-dimethyl-propyl]amino]-10-oxo-decyl]-3,5-dimethyl-pyrazol-4-yl]pyridine-2-carboxylic acid]	B (50% ≤ Ymin < 70%)	
Cc1ncsc1-c1ccc([C@H](C)NC(=O)[C@@H]2C[C@@H](O)CN2C(=O)[C@@H](NC(=O)CCc2ccc(Oc3cccc(-c4ccc(N5CCc6cccc(C(=O)Nc7nc8ccccc8s7)c6C5)nc4C(=O)O)c3C)cc2)C(C)(C)C)cc1 [Compound 112a, 6-[8-(1,3-benzothiazol-2-ylcarbamoyl)-3,4-dihydro-1H-isoquinolin-2-yl]-3-[3-[4-[3-[[(1S)-1-[(2S, 4R)-4-hydroxy-2-[[(1S)-1-[4-(4-methylthiazol-5-yl)phenyl]ethyl]carbamoyl]pyrrolidine-1-carbonyl]-2,2-dimethyl-propyl]amino]-3-oxo-propyl]phenoxy]-2-methyl-phenyl]pyridine-2-carboxylic acid]	B (50% ≤ Ymin < 70%)	B (50% ≤ Ymin < 70%)
Cc1ncsc1-c1ccc([C@H](C)NC(=O)[C@@H]2C[C@@H](O)CN2C(=O)[C@@H](NC(=O)Cc2ccc(Oc3cccc(-c4ccc(N5CCc6cccc(C(=O)Nc7nc8ccccc8s7)c6C5)nc4C(=O)O)c3C)cc2)C(C)(C)C)cc1 [Compound 113a, 6-[8-(1,3-benzothiazol-2-ylcarbamoyl)-3,4-dihydro-1H-isoquinolin-2-yl]-3-[3-[4-[2-[[(1S)-1-[(2S,4R)-4-hydroxy-2-[[(1S)-1-[4-(4-methylthiazol-5-yl)phenyl]ethyl]carbamoyl]pyrrolidine-1-carbonyl]-2,2-dimethyl-propyl]amino]-2-oxo-ethyl]phenoxy]-2-methyl-phenyl]pyridine-2-carboxylic acid]	A (Ymin < 50%)	A (Ymin < 50%)
Cc1ncsc1-c1ccc([C@H](C)NC(=O)[C@@H]2C[C@@H](O)CN2C(=O)[C@@H](NC(=O)CCc2ccc(COc3cccc(-c4ccc(N5CCc6cccc(C(=O)Nc7nc8ccccc8s7)c6C5)nc4C(=O)O)c3C)cc2)C(C)(C)C)cc1 [Compound 114a, 6-(8-(benzo[d]thiazol-2-ylcarbamoyl)-3,4-dihydroisoquinolin-2(1H)-yl)-3-(3-((4-(3-(((S)-1-((2S,4R)-4-hydroxy-2-(((S)-1-(4-(4-methylthiazol-5-yl)phenyl)ethyl)carbamoyl)pyrrolidin-1-yl)-3,3-dimethyl-1-oxobutan-2-yl)amino)-3-oxopropyl)benzyl)oxy)-2-methylphenyl)picolinic acid]	B (50% ≤ Ymin < 70%)	A (Ymin < 50%)
Cc1ncsc1-c1ccc([C@H](C)NC(=O)[C@@H]2C[C@@H](O)CN2C(=O)[C@@H](NC(=O)CCCc2ccc(Oc3cccc(-c4ccc(N5CCc6cccc(C(=O)Nc7nc8ccccc8s7)c6C5)nc4C(=O)O)c3C)cc2)C(C)(C)C)cc1 [Compound 115a, 6-(8-(benzo[d]thiazol-2-ylcarbamoyl)-3,4-dihydroisoquinolin-2 (1H)-yl)-3-(3-(4-(4-(((S)-1-((2S,4R)-4-hydroxy-2-(((S)-1-(4-(4-methylthiazol-5-yl)phenyl)ethyl)carbamoyl)pyrrolidin-1-yl)-3,3-dimethyl-1-oxobutan-2-yl)amino)-4-oxobutyl)phenoxy)-2-methylphenyl)picolinic acid]	A (Ymin < 50%)	A (Ymin < 50%)
Cc1ncsc1-c1ccc([C@H](C)NC(=O)[C@@H]2C[C@@H](O)CN2C(=O)[C@@H](NC(=O)C[C@H]2CC[C@H](Oc3cccc(-c4ccc(N5CCc6cccc(C(=O)Nc7nc8ccccc8s7)c6C5)nc4C(=O)O)c3C)CC2)C(C)(C)C)cc1 [Compound 116a, 6-(8-(benzo[d]thiazol-2-ylcarbamoyl)-3,4-dihydroisoquinolin-2 (1H)-yl)-3-(3-(((1S,4r)-4-(2-(((S)-1-((2S,4R)-4-hydroxy-2-(((S)-1-(4-(4-methylthiazol-5-yl)phenyl)ethyl)carbamoyl)pyrrolidin-1-yl)-3,3-dimethyl-1-oxobutan-2-yl)amino)-2-oxoethyl)cyclohexyl)oxy)-2-methylphenyl)picolinic acid]		A (Ymin < 50%)
